# Test results: patent US6368788B1 (priority 1987, dated 2002)
# Where “and” joins values, the source holds several entries; their conditions need not be identical. Equal entries are not always repeated. Marks after values point to notes of the source that are not given here.
# Legend:
# [1] = Patients after radiation and chemotherapy, L-Glu-L-Trp 100 μg daily 10 days; settings: human, in vivo
# Description: A total of 246 patients were eventually entered into studies after receiving radiation and chemotherapy. L-Glu-L-Trp was administered to the patients in single 100 μg daily dose for each of 10 days during the period of chemotherapy. A control group constituted 158 similar patients (following radiation and chemotherapy), and these patients were treated in a conventional manner (i.e., chemotherapy and support therapy). […] Immune parameters were periodically monitored over the next 4-6 months in the patients and decreased levels of lymphocytes or their subpopulations were used as clinical triggers for additional therapeutic intervention with L-Glu-L-Trp.
# [2] = Influenza symptoms and sinusitis (Protocol F); format: in vivo, human
# Description: Summary Overview: Fifty-one patients (51) were treated daily for 3-10 days with either 100 μg L-Glu-L-Trp administered im, or 1 μg/kg administered intranasally. A control group of 24 similar patients remained untreated.
# HIV = assay: HIV-infected individuals: comparative studies with TPI; design: species or system human; settings: in vivo
# Description: In separate studies, a total of 21 HIV-infected individuals were studied, including full-blown syndrome, prodromal, and pre-AIDS afflicted individuals who were treated with Thympentin. Thympentin and TPI are thymic gland peptide extracts previously disclosed in the scientific literature.
# [3] = Acute osteomyelitis / soft tissue inflammation in children (Protocol C); format: in vivo, human
# Description: Seventeen hospitalized children (10 boys and 7 girls) were entered into this protocol: 6 with acute inflammatory diseases of soft tissues (abscesses, phlegmons), 4 with odotogenous osteomyelitis of the jaw, and 7 with hematogenous osteomyelitis of the flat and tubular bones. In 11 children, the course of the illness was acute and in 6 it was subacute and chronic.
# L-Glu-L-Trp was administered in combination therapy with conventional antibiotic therapies. Where necessary, surgery was performed to drain infectious foci in the jaw or soft tissues, affected teeth were extracted, and for osteomyelitis a port was drilled for infusion of antibiotics. Physical examination and laboratory testing was conducted before administering L-Glu-L-Trp and 2-3 days after the treatment.
# Laboratory tests were conducted to determine clinical chemistry and protein values prior to and after therapy (i.e., including the concentrations of bilirubin, creatinine, albumin, cholesterol, urea nitrogen, glucose, protein, chloride, potassium, phosphorus, calcium, sodium, alkaline phosphatase, α1-orosomucoid, α2-macroglobulin, prealbumin, ceruloplasmin, and transferrin). While urea nitrogen and cholesterol decreased slightly after therapy, these and all other changes observed after L-Glu-L-Trp treatment were not statistically significant.
# [4] = test system: resident peritoneal macrophages; assay: Innate immunity in CBA mice: thymic and spleen mass, splenic lymphocytes, resident peritoneal macrophages; format: in vivo; settings: for Spleen / Thymus: CBA mice; for NBT Reduction, Induced: macrophages induced with complement opsonized zymosan; for NBT Reduction, Spontaneous / Neutral Red Uptake Absorbance: resident peritoneal macrophages
# Pseudomonas aeruginosa = assay: Survival after acute peritonitis with LD100 dose of Pseudomonas aeruginosa; format: in vivo, mice
# M. bovis = format: in vivo, mice; settings: mouse, in vivo
# Pneumocystis carinii = Pneumocystis carinii lung infection in cortisone-immunocompromised rats; format: in vivo; settings: for Lung (bacteria): mean ± S.E., magnification 400X; for Lymphocytes / Neutrophils / Total Leukocytes / Lymphocytes (% Normal) / Neutrophils (% normal) / Total Leukocytes (% normal): peripheral blood at 79 days; for Lymphocytes (% Normal) / Neutrophils (% normal) / Total Leukocytes (% normal): % of day 0
# Description: Corticosteroids were administered to rats to induce an immunocompromised state in which an opportunistic infection with Pneumocystis carinii could be established. The immunocompromised state was induced by administering cortisone acetate im twice weekly at a dose of 25 mg/kg over the entire 12 week course of the study. Pneumocystis carinii lung infection was initiated by intranasal instillation on day 0. Prophylactic tetracycline was administered po in the drinking water ([…]), and peripheral blood differential counts were monitored over the next 12 weeks. In control (untreated) Pneumocystis-infected animals, differential counts, body weight, and lymphocyte counts began dropping at about 30-39 days and lung infection was evident histologically by about day 60-69. At day 80, tetracycline treatment was discontinued in all groups. By day 80 in this animal model, mean body weight of the animals had dropped by approximately 30% from the values recorded on day 0. Groups were comprised of 15 rats each.
# L-Glu-L-Trp treatments were administered according to the following protocol: 10 consecutive daily im injections of 10 μg/kg or 100 μg/kg of L-Glu-L-Trp on days 0 through 9, 30 through 39, and 60 through 69 of the study. Differential cell counts in peripheral blood (TABLE 80) and lung histology (i.e., with enumeration of the number of P. carinii/10 microscopic fields—at 400× magnification) were used to monitor the course of the opportunistic infection.
# influenza = settings: vs control group
# Description: Sixty-six (66) hospitalized patients between the ages 18-20 years with confirmed influenza infections were admitted into the trial. Of the patients, 12 were determined to be severely infected, and the remaining 54 seriously infected and in need of hospitalization.
# [5] = children, After L-Glu-L-Trp Therapy (2-3 days after treatment)
substance,measurement,setting,value
L-Glu-L-Trp,Clinical outcome,[1],decreased incidence and severity of post-operative complications
same,Clinical outcome,[2]; in vivo,"reduced nasal mucous swelling, normalization of breathing"
same,Decrease of total duration of patient treatment,[2]; vs control group,up to 1.7 fold
same,Comparative effectiveness,HIV,"more effective than TPI in restoring normal immunologic indices, T-cell functional activity, and T4/T8 ratios"
same,B-Lymphocytes: % of PBL,[3]; [5],15.1 ± 3.32 % of PBL
same,B-Lymphocytes: No.,[3]; [5],0.41 ± 0.11 10^9/L
same,C3,[3]; [5],0.72 ± 0.05 g/L
same,IgA,[3]; [5],1.68 ± 0.18 g/L
same,IgG,[3]; [5],14.4 ± 1.31 g/L
same,IgM,[3]; [5],1.64 ± 0.26 g/L
same,LMIR: % Con A,[3]; [5],49.7 ± 13.7 %
same,LMIR: % PHA,[3]; [5],47.7 ± 11.2 %
same,Leukocytes,[3]; [5],7.0 ± 0.4^† 10^9/L
same,Lymphocytes: % of PBL,[3]; [5],43 ± 3.61 % of PBL
same,Lymphocytes: No.,[3]; [5],3.15 ± 0.41 10^9/L
same,Neutrophils,[3]; [5],3.4 ± 0.33 ×10^9/L
same,Neutrophils: % PBL,[3]; [5],50 ± 4.8 % PBL
same,Null-Lymphocytes: % of PBL,[3]; [5],18.7 ± 4.68 % of PBL
same,Null-Lymphocytes: No.,[3]; [5],0.42 ± 0.11^† 10^9/L
same,T-Lymphocytes: % of Lym,[3]; [5],66.2 ± 2.57 % of Lym
same,T-Lymphocytes: No.,[3]; [5],1.7 ± 0.3 10^9/L
same,T-helper (Etr-RFC): % of Lym,[3]; [5],57.3 ± 6.34 % of Lym
same,T-helper (Etr-RFC): No.,[3]; [5],1.4 ± 0.24 10^9/L
same,T-suppressor: % of Lym,[3]; [5],8.8 ± 5.4 % of Lym
same,T-suppressor: No.,[3]; [5],0.3 ± 0.2 10^9/L
same,Wounds cleaned and granulated earlier than usual,[3]; in vivo,2 to 3 days
same,B cells Change (% peptide treated/% control),[4]; 0.01 mg/kg ip daily 6 days,1.0
same,Splenic lymphocytes: B cells (%),[4]; 0.01 mg/kg ip daily 6 days,50.8 ± 3.0%
same,Splenic lymphocytes: T cells (%),[4]; 0.01 mg/kg ip daily 6 days,41.2 ± 2.1 %
same,T cells Change (% peptide treated/% control),[4]; 0.01 mg/kg ip daily 6 days,↑ 1.1
same,Increase in neutral red uptake by macrophages,"[4]; 0.01 mg/kg, not statistically different from control",75%
same,Thymic weight,"[4]; 1 mg/kg and 0.01 mg/kg ip, 6 days",statistically significant decrease in thymic weight at both dosages
same,B cells Change (% peptide treated/% control),[4]; 1.0 mg/kg ip daily 6 days,1.0
same,Splenic lymphocytes: B cells (%),[4]; 1.0 mg/kg ip daily 6 days,52.4 ± 1.71%
same,Splenic lymphocytes: T cells (%),[4]; 1.0 mg/kg ip daily 6 days,34.8 ± 2.5%
same,T cells Change (% peptide treated/% control),[4]; 1.0 mg/kg ip daily 6 days,↓ 0.9
same,Spleen,[4]; 0.01 mg/kg ip daily 6 days,69.8 ± 2.6 mg
same,Thymus,[4]; 0.01 mg/kg ip daily 6 days,14.8 ± 1.6 mg
same,Spleen,[4]; 1.0 mg/kg ip daily 6 days,88.4 ± 4.4 mg
same,Thymus,[4]; 1.0 mg/kg ip daily 6 days,14.1 ± 1.3 mg
same,Increase in NBT reducing activity on induction with complement-opsonized zymosan,[4]; macrophages from treated animals,1.75 fold and 2 fold
same,"NBT Reduction, Induced",[4]; 0.01 mg/kg,0.205 ± 0.012 OD540
same,"NBT Reduction, Induced",[4]; 1 mg/kg,0.116 ± 0.008 OD540
same,"NBT Reduction, Spontaneous",[4]; 0.01 mg/kg,0.101 ± 0.002 OD540
same,Neutral Red Uptake Absorbance,[4]; 0.01 mg/kg,0.604 ± 0.031
same,"NBT Reduction, Spontaneous",[4]; 1 mg/kg,0.059 ± 0.003 OD540
same,Neutral Red Uptake Absorbance,[4]; 1 mg/kg,0.469 ± 0.016
same,Percentage Survivors,"Pseudomonas aeruginosa; 24 hours after injection, Glu-Trp dose 10 μg/kg (alone or + Gentamycin 1 MED)",55.6* %
same,Percentage Survivors,"Pseudomonas aeruginosa; 24 hours after injection, Glu-Trp dose 100 μg/kg (alone or + Gentamycin 1 MED)",66.7*† %
same,Percentage Survivors,"Pseudomonas aeruginosa; 24 hours after injection, Glu-Trp dose 1000 μg/kg (alone or + Gentamycin 1 MED)",77.8*† %
same,Percentage Survivors,"Pseudomonas aeruginosa; 48 hours after injection, Glu-Trp dose 10 μg/kg (alone or + Gentamycin 1 MED)",5.6%
same,Percentage Survivors,"Pseudomonas aeruginosa; 48 hours after injection, Glu-Trp dose 100 μg/kg (alone or + Gentamycin 1 MED)",38.9* %
same,Percentage Survivors,"Pseudomonas aeruginosa; 48 hours after injection, Glu-Trp dose 1000 μg/kg (alone or + Gentamycin 1 MED)",44.4* %
same,Percentage Survivors,"Pseudomonas aeruginosa; 96 hours after injection, Glu-Trp dose 10 μg/kg (alone or + Gentamycin 1 MED)",5.6%
same,Percentage Survivors,"Pseudomonas aeruginosa; 96 hours after injection, Glu-Trp dose 100 μg/kg (alone or + Gentamycin 1 MED)",38.9%
same,Percentage Survivors,"Pseudomonas aeruginosa; 96 hours after injection, Glu-Trp dose 1000 μg/kg (alone or + Gentamycin 1 MED)",44.4* %
same,Survival,Pseudomonas aeruginosa; alone or with Gentamycin,significantly increased the percentage of mice surviving a lethal challenge of Pseudomonas
same,Survival,M. bovis,significantly increased survival
same,Survival Mean,M. bovis; ip,39 ± 2 and 36 ± 3 and 30 ± 2 and 33 ± 1 and 31 ± 1 and 28 ± 1
same,Survival Median,M. bovis; ip,46 ± 10 and 28 ± 3 and 26 ± 1 and 34 ± 3 and 28 ± 1 and 25 ± 1
same,"Numbers of lung bacteria, % of saline treated control",Pneumocystis carinii; 10 μg/kg,about 33%
same,Lung (bacteria),Pneumocystis carinii; 10 μg/kg im,53 ± 32 P. carinii bacteria per 10 sections
same,"Numbers of lung bacteria, % of saline treated control",Pneumocystis carinii; 100 μg/kg,~43%
same,Lung (bacteria),Pneumocystis carinii; 100 μg/kg im,70 ± 33 P. carinii bacteria per 10 sections
same,"Leukocyte counts, % of normal",Pneumocystis carinii; day 79,45-47%
same,"Lymphocyte counts, % of normal",Pneumocystis carinii; day 79,45%
same,Lymphocytes,Pneumocystis carinii; 10 μg/kg im,4.7 ± 1.2 ×10^6/ml
same,Neutrophils,Pneumocystis carinii; 10 μg/kg im,2.0 ± 0.7 ×10^6/ml
same,Total Leukocytes,Pneumocystis carinii; 10 μg/kg im,8.1 ± 2.3 ×10^6/ml
same,Lymphocytes (% Normal),Pneumocystis carinii; 10 μg/kg im,45%
same,Neutrophils (% normal),Pneumocystis carinii; 10 μg/kg im,41%
same,Total Leukocytes (% normal),Pneumocystis carinii; 10 μg/kg im,47%
same,Lymphocytes,Pneumocystis carinii; 100 μg/kg im,4.7 ± 1.4 ×10^6/ml
same,Neutrophils,Pneumocystis carinii; 100 μg/kg im,1.5 ± 0.5 ×10^6/ml
same,Total Leukocytes,Pneumocystis carinii; 100 μg/kg im,7.8 ± 1.8 ×10^6/ml
same,Lymphocytes (% Normal),Pneumocystis carinii; 100 μg/kg im,45%
same,Neutrophils (% normal),Pneumocystis carinii; 100 μg/kg im,31%
same,Total Leukocytes (% normal),Pneumocystis carinii; 100 μg/kg im,45%
same,Lower incidence of respiratory complications,influenza,3.5 times
